This is an account of results in patent EP4692114A1, “CALCITONIN ANALOGUE, AND DERIVATIVE THEREOF AND USE THEREOF” (Hangzhou Sciwind Biosciences Co., Ltd., priority 2023, dated 2024).

*1 amine or outer side, *2 acyl side, *3 side chain or, on linkers, in order; H or OH if unused. Where a SMILES comes first, the peptide text is derived from it. [ ]: non-standard residue; d: D form. The star is where a group is joined. C22 diacid = O=C(O)CCCCCCCCCCCCCCCCCCCCC(=O)*; C20 diacid = O=C(O)CCCCCCCCCCCCCCCCCCC(=O)*; γGlu = O=C(O)[C@H](CCC(=O)[*:2])N[*:1]; βAsp = O=C(O)[C@H](CC(=O)[*:2])N[*:1]; AEEA = NCCOCCOCC(=O)O; Inp = O=C(O)C1CCNCC1

This test deals with T1, human amylin receptors (Homo sapiens, UniProt O60896+P30988).
T1 sequence (P30988 25-474): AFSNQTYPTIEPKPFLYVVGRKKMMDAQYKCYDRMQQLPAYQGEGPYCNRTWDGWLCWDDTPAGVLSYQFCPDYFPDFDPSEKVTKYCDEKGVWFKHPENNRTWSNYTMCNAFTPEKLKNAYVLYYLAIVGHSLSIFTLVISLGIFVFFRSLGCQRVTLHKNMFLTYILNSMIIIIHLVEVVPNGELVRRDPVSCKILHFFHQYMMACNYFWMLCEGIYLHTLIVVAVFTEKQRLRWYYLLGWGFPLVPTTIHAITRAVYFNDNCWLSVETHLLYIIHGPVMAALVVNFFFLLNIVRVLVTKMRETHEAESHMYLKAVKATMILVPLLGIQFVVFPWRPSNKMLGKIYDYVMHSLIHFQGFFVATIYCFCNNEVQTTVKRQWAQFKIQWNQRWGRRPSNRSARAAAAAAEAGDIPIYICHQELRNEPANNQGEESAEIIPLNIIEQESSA
T1 sequence (O60896 24-148 partner): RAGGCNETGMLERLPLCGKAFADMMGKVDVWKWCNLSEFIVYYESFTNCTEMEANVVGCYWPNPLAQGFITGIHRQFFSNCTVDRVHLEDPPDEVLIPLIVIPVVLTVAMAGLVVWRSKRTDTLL
The test can be described thus: Luciferase assay of amylin (amylin receptor/CRE-luc cell line).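 Also: agonist potency from luminescence of cAMP response element-driven luciferase, EC50 derived from a standard curve of signal versus compound concentration.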 Format: cell-based. Conditions: stably transfected amylin receptor/CRE-luc CHO cells (CHO-K1/Gal5/AMY3), 24 hours incubation, luciferase readout.
Description: The objective of this assay is to test the activity or potency of calcitonin analogues or derivatives on human amylin receptors in vitro using a luciferase assay.
Using the standard protocol, CHO-K1/Gal5/AMY3 cells (purchased from GenScript, with the calcitonin receptor and the receptor activity modifying peptide (RAMP) constructed already) were transfected with a plasmid containing a luciferase expression cassette driven by multiple copies of cAMP response elements (CREs). The cells were cultured in an F12 medium containing 200 ug/mL Zeocin, 2 ug/mL puromycin, 100 ug/mL hygromycin, and 400 ug/mL G418 to afford a stably transfected amylin receptor/CRE-luc cell line.
To each well of a white 96-well plate was added 50 µL of the tested sample solution at a respective concentration.
The stably transfected amylin receptor/CRE-luc CHO cells were resuspended in the growth medium at a certain density, and 50 µL of the cell suspension was added at a density of about 20000 cells per well to the white 96-well plate containing the tested sample solution. After incubation of 24 hours at 37°C and 5% CO2, 100 µL of a Luciferase substrate was added to each well, incubated for 3 minutes, and finally was tested for luminescence on SpectraMax L (Molecular Devices) with the software SoftMax Pro 7.0.3 GxP. A standard curve was plotted using the fluorescent intensities for calculation of EC50.
For the compound `CC(C)C[C@H](NC(=O)[C@H](CCCNC(=N)N)NC(=O)CNC(=O)[C@H](CC(C)C)NC(=O)[C@@H](NC(=O)[C@H](C)NC(=O)[C@@H](NC(=O)[C@H](CO)NC(=O)[C@H](CC(C)C)NC(=O)[C@H](CCC(N)=O)NC(=O)[C@H](CO)NC(=O)[C@H](C)NC(=O)COCCOCCNC(=O)COCCOCCNC(=O)C[C@H](NC(=O)CCCCCCCCCCCCCCCCCCC(=O)O)C(=O)O)[C@@H](C)O)C(C)C)C(=O)N[C@@H](CO)C(=O)N[C@@H](CCC(=O)O)C(=O)N[C@@H](CCC(=O)O)C(=O)N[C@@H](CC(C)C)C(=O)N[C@@H](Cc1c[nH]cn1)C(=O)N[C@@H](CCCNC(=N)N)C(=O)N[C@@H](CC(C)C)C(=O)N[C@@H](CCC(N)=O)C(=O)N[C@@H](CC(=O)O)C(=O)N[C@@H](Cc1ccc(O)cc1)C(=O)N1CCC[C@H]1C(=O)N[C@@H](CCCNC(=N)N)C(=O)N[C@H](C(=O)N[C@@H](CC(=O)O)C(=O)N[C@H](C(=O)NCC(=O)N[C@@H](CO)C(=O)NCC(=O)N[C@@H](CO)C(=O)N1CCC[C@H]1C(N)=O)C(C)C)[C@@H](C)O` [M59] ({C20 diacid-βAsp-AEEA-AEEA}-ASQLSTAVLGRLSEELHRLQDYPRTDVGSGSP-NH2), the EC50 (as a rule, the concentration giving half of the maximal effect) is 17 pM. That is a picomolar value.

The compound `CC(C)C[C@H](NC(=O)[C@H](CCCNC(=N)N)NC(=O)CNC(=O)[C@H](CC(C)C)NC(=O)[C@@H](NC(=O)[C@H](C)NC(=O)[C@@H](NC(=O)[C@H](CO)NC(=O)[C@H](CC(C)C)NC(=O)[C@H](CCC(N)=O)NC(=O)[C@H](CO)NC(=O)[C@H](C)NC(=O)[C@H](CC(=O)O)NC(=O)CCCCCCCCCCCCCCCCCCC(=O)O)[C@@H](C)O)C(C)C)C(=O)N[C@@H](CO)C(=O)N[C@@H](CCC(=O)O)C(=O)N[C@@H](CCC(=O)O)C(=O)N[C@@H](CC(C)C)C(=O)N[C@@H](Cc1c[nH]cn1)C(=O)N[C@@H](CCCNC(=N)N)C(=O)N[C@@H](CC(C)C)C(=O)N[C@@H](CCC(N)=O)C(=O)N[C@@H](CC(=O)O)C(=O)N[C@@H](Cc1ccc(O)cc1)C(=O)N1CCC[C@H]1C(=O)N[C@@H](CCCNC(=N)N)C(=O)N[C@H](C(=O)N[C@@H](CC(=O)O)C(=O)N[C@H](C(=O)NCC(=O)N[C@@H](CO)C(=O)NCC(=O)N[C@@H](CO)C(=O)N1CCC[C@H]1C(N)=O)C(C)C)[C@@H](C)O` [M54] ({C20 diacid}-DASQLSTAVLGRLSEELHRLQDYPRTDVGSGSP-NH2) displayed an EC50 of 17 pM. That is a picomolar value.

`CC(C)C[C@H](NC(=O)[C@H](CCCNC(=N)N)NC(=O)CNC(=O)[C@H](CC(C)C)NC(=O)[C@@H](NC(=O)[C@H](C)NC(=O)[C@@H](NC(=O)[C@H](CO)NC(=O)[C@H](CC(C)C)NC(=O)[C@H](CCC(N)=O)NC(=O)[C@H](CO)NC(=O)[C@H](C)NC(=O)COCCOCCNC(=O)COCCOCCNC(=O)[C@H](CC(=O)O)NC(=O)CCCCCCCCCCCCCCCCCCC(=O)O)[C@@H](C)O)C(C)C)C(=O)N[C@@H](CO)C(=O)N[C@@H](CCC(=O)O)C(=O)N[C@@H](CCC(=O)O)C(=O)N[C@@H](CC(C)C)C(=O)N[C@@H](Cc1c[nH]cn1)C(=O)N[C@@H](CCCNC(=N)N)C(=O)N[C@@H](CC(C)C)C(=O)N[C@@H](CCC(N)=O)C(=O)N[C@@H](CC(=O)O)C(=O)N[C@@H](Cc1ccc(O)cc1)C(=O)N1CCC[C@H]1C(=O)N[C@@H](CCCNC(=N)N)C(=O)N[C@H](C(=O)N[C@@H](CC(=O)O)C(=O)N[C@H](C(=O)NCC(=O)N[C@@H](CO)C(=O)NCC(=O)N[C@@H](CO)C(=O)N1CCC[C@H]1C(N)=O)C(C)C)[C@@H](C)O` [M60] ({C20 diacid}-D[AEEA][AEEA]ASQLSTAVLGRLSEELHRLQDYPRTDVGSGSP-NH2) registered an EC50 of 16 pM.

In the case of `CC(C)C[C@H](NC(=O)[C@H](CCCNC(=N)N)NC(=O)CNC(=O)[C@H](CC(C)C)NC(=O)[C@@H](NC(=O)[C@H](C)NC(=O)[C@@H](NC(=O)[C@H](CO)NC(=O)[C@H](CC(C)C)NC(=O)[C@H](CCC(N)=O)NC(=O)[C@H](CO)NC(=O)[C@H](C)NC(=O)C[C@H](NC(=O)CCCCCCCCCCCCCCCCCCC(=O)O)C(=O)O)[C@@H](C)O)C(C)C)C(=O)N[C@@H](CO)C(=O)N[C@@H](CCC(=O)O)C(=O)N[C@@H](CCC(=O)O)C(=O)N[C@@H](CC(C)C)C(=O)N[C@@H](Cc1c[nH]cn1)C(=O)N[C@@H](CCCNC(=N)N)C(=O)N[C@@H](CC(C)C)C(=O)N[C@@H](CCC(N)=O)C(=O)N[C@@H](CC(=O)O)C(=O)N[C@@H](Cc1ccc(O)cc1)C(=O)N1CCC[C@H]1C(=O)N[C@@H](CCCNC(=N)N)C(=O)N[C@H](C(=O)N[C@@H](CC(=O)O)C(=O)N[C@H](C(=O)NCC(=O)N[C@@H](CO)C(=O)NCC(=O)N[C@@H](CO)C(=O)N1CCC[C@H]1C(N)=O)C(C)C)[C@@H](C)O` [M53] ({C20 diacid-βAsp}-ASQLSTAVLGRLSEELHRLQDYPRTDVGSGSP-NH2), the concentration giving a half-maximal response (EC50) came out at 17 pM.

`CC(C)C[C@H](NC(=O)[C@H](CCCNC(=N)N)NC(=O)CNC(=O)[C@H](CC(C)C)NC(=O)[C@@H](NC(=O)[C@H](C)NC(=O)[C@@H](NC(=O)[C@H](CO)NC(=O)[C@H](CC(C)C)NC(=O)[C@H](CCC(N)=O)NC(=O)[C@H](CO)NC(=O)[C@H](C)NC(=O)COCCOCCNC(=O)COCCOCCNC(=O)COCCOCCNC(=O)COCCOCCNC(=O)CC[C@H](NC(=O)CCCCCCCCCCCCCCCCCCCCC(=O)O)C(=O)O)[C@@H](C)O)C(C)C)C(=O)N[C@@H](CO)C(=O)N[C@@H](CCC(=O)O)C(=O)N[C@@H](CCC(=O)O)C(=O)N[C@@H](CC(C)C)C(=O)N[C@@H](Cc1c[nH]cn1)C(=O)N[C@@H](CCCNC(=N)N)C(=O)N[C@@H](CC(C)C)C(=O)N[C@@H](CCC(N)=O)C(=O)N[C@@H](CC(=O)O)C(=O)N[C@@H](Cc1ccc(O)cc1)C(=O)N1CCC[C@H]1C(=O)N[C@@H](CCCNC(=N)N)C(=O)N[C@H](C(=O)N[C@@H](CC(=O)O)C(=O)N[C@H](C(=O)NCC(=O)N[C@@H](CO)C(=O)NCC(=O)N[C@@H](CO)C(=O)N1CCC[C@H]1C(N)=O)C(C)C)[C@@H](C)O` [M67] ({C22 diacid-γGlu-AEEA-AEEA-AEEA-AEEA}-ASQLSTAVLGRLSEELHRLQDYPRTDVGSGSP-NH2) showed an EC50 of 17 pM.

In the case of `CC(C)C[C@H](NC(=O)[C@H](CCCNC(=N)N)NC(=O)CNC(=O)[C@H](CC(C)C)NC(=O)[C@@H](NC(=O)[C@H](C)NC(=O)[C@@H](NC(=O)[C@H](CO)NC(=O)[C@H](CC(C)C)NC(=O)[C@H](CCC(N)=O)NC(=O)[C@H](CO)NC(=O)[C@H](C)NC(=O)COCCOCCNC(=O)COCCOCCNC(=O)C1CCN(C(=O)CCCCCCCCCCCCCCCCCCC(=O)O)CC1)[C@@H](C)O)C(C)C)C(=O)N[C@@H](CO)C(=O)N[C@@H](CCC(=O)O)C(=O)N[C@@H](CCC(=O)O)C(=O)N[C@@H](CC(C)C)C(=O)N[C@@H](Cc1c[nH]cn1)C(=O)N[C@@H](CCCNC(=N)N)C(=O)N[C@@H](CC(C)C)C(=O)N[C@@H](CCC(N)=O)C(=O)N[C@@H](CC(=O)O)C(=O)N[C@@H](Cc1ccc(O)cc1)C(=O)N1CCC[C@H]1C(=O)N[C@@H](CCCNC(=N)N)C(=O)N[C@H](C(=O)N[C@@H](CC(=O)O)C(=O)N[C@H](C(=O)NCC(=O)N[C@@H](CO)C(=O)NCC(=O)N[C@@H](CO)C(=O)N1CCC[C@H]1C(N)=O)C(C)C)[C@@H](C)O` [M62] ({C20 diacid-Inp-AEEA-AEEA}-ASQLSTAVLGRLSEELHRLQDYPRTDVGSGSP-NH2), the midpoint of the response, the EC50, lay at 16 pM.

`CC(C)C[C@H](NC(=O)[C@H](CCCNC(=N)N)NC(=O)CNC(=O)[C@H](CC(C)C)NC(=O)[C@@H](NC(=O)[C@H](C)NC(=O)[C@@H](NC(=O)[C@H](CO)NC(=O)[C@H](CC(C)C)NC(=O)[C@H](CCC(N)=O)NC(=O)[C@H](CO)NC(=O)[C@H](C)NC(=O)CC[C@H](NC(=O)CCCCCCCCCCCCCCCCCCC(=O)O)C(=O)O)[C@@H](C)O)C(C)C)C(=O)N[C@@H](CO)C(=O)N[C@@H](CCC(N)=O)C(=O)N[C@@H](CCC(=O)O)C(=O)N[C@@H](CC(C)C)C(=O)N[C@@H](Cc1c[nH]cn1)C(=O)N[C@@H](CCCNC(=N)N)C(=O)N[C@@H](CC(C)C)C(=O)N[C@@H](CCC(N)=O)C(=O)N[C@@H](CC(=O)O)C(=O)N[C@@H](Cc1ccc(O)cc1)C(=O)N1CCC[C@H]1C(=O)N[C@@H](CCCNC(=N)N)C(=O)N[C@H](C(=O)N[C@@H](CCC(N)=O)C(=O)N[C@H](C(=O)NCC(=O)N[C@@H](CO)C(=O)NCC(=O)N[C@@H](CO)C(=O)N1CCC[C@H]1C(N)=O)C(C)C)[C@@H](C)O` [M15] ({C20 diacid-γGlu}-ASQLSTAVLGRLSQELHRLQDYPRTQVGSGSP-NH2) showed an EC50 of 16 pM.

In the case of `CC(C)C[C@H](NC(=O)[C@H](CCCNC(=N)N)NC(=O)CNC(=O)[C@H](CC(C)C)NC(=O)[C@@H](NC(=O)[C@H](C)NC(=O)[C@@H](NC(=O)[C@H](CO)NC(=O)[C@H](CC(C)C)NC(=O)[C@H](CCC(N)=O)NC(=O)[C@H](CO)NC(=O)[C@H](C)NC(=O)COCCOCCNC(=O)COCCOCCNC(=O)CC[C@H](NC(=O)CCCCCCCCCCCCCCCCCCC(=O)O)C(=O)O)[C@@H](C)O)C(C)C)C(=O)N[C@@H](CO)C(=O)N[C@@H](CCC(=O)O)C(=O)N[C@@H](CCC(=O)O)C(=O)N[C@@H](CC(C)C)C(=O)N[C@@H](Cc1c[nH]cn1)C(=O)N[C@@H](CCCNC(=N)N)C(=O)N[C@@H](CC(C)C)C(=O)N[C@@H](CCC(N)=O)C(=O)N[C@@H](CC(=O)O)C(=O)N[C@@H](Cc1ccc(O)cc1)C(=O)N1CCC[C@H]1C(=O)N[C@@H](CCCNC(=N)N)C(=O)N[C@H](C(=O)N[C@@H](CC(=O)O)C(=O)N[C@H](C(=O)NCC(=O)N[C@@H](CO)C(=O)NCC(=O)N[C@@H](CO)C(=O)N1CCC[C@H]1C(N)=O)C(C)C)[C@@H](C)O` [M57] ({C20 diacid-γGlu-AEEA-AEEA}-ASQLSTAVLGRLSEELHRLQDYPRTDVGSGSP-NH2), the concentration for a half-maximal effect (EC50) was 17 pM.
